These are literature values, as cited in patent US11390612B2, “Polymorphic forms of Afatinib free base and Afatinib dimaleate” (FRESENIUS KABI ONCOLOGY LIMITED, priority 2015, dated 2022).

The conditions of this series: as observed in WO 2013/052157.

Turning to `CN(C)C/C=C/C(=O)Nc1cc2c(Nc3ccc(F)c(Cl)c3)ncnc2cc1O[C@H]1CCOC1.O=C(O)/C=C\C(=O)O.O=C(O)/C=C\C(=O)O` [form A of Afatinib dimaleate], the hygroscopicity result is recorded as “hygroscopic in nature”. The “polymorphic conversion after absorbing moisture” value (after absorbing moisture) is listed as “converts to form E of Afatinib dimaleate”.
